Laboratory results as given in US20150111896A1, “HEMATOPOIETIC PROTECTION AGAINST CHEMOTHERAPEUTIC COMPOUNDS USING SELECTIVE CYCLIN-DEPENDENT KINASE 4/6 INHIBITORS” (The University of North Carolina at Chapel Hill, priority 2008, published 2015).
Entries after “also recorded” stand apart in the source; their conditions may differ.

How the values were obtained:
[1] = test system: telomerized human diploid fibroblast (tHDF) cells (HS68); assay: Cell proliferation assay (WST-1 or CellTiter-Glo) after chemotherapeutic; conditions: for protection from chemotherapy-induced cytotoxicity (cell proliferation assays): HS68 (CDK4/6-dependent), pretreatment prior to carboplatin, etoposide or doxorubicin; for chemoprotective effects against doxorubicin (cell viability, CellTiter-Glo) / protection from doxorubicin-induced cytotoxicity (cell viability, WST-1 assay): HS68; for chemoprotective effects against doxorubicin (cell viability, CellTiter-Glo): 16 hours pretreatment, DOX 370 nM 8 hours, viability after 7 days; for protection from doxorubicin-induced cytotoxicity (cell viability, WST-1 assay): absorbance at 450 nm, 7 days recovery
Method: (§4) In some embodiments, cell viability is assessed by performing a assay using 2-(4-iodophenyl)-3-(4-nitrophenyl)-5-(2,4-disulfophenyl)-2H-tetrazolium monosodium salt (WST-1), such as described further hereinbelow. In the WST-1 assay, WST-1 is cleaved by a mitochondrial reductase present in viable cells to form a colored product (i.e., formazan) that can be detected by measuring absorbance at a particular wavelength (e.g., 420-480 nm). […] The CellTiter-Glo® assay (CTG assay; Promega, Madison, Wis., United States of America) measures cell viability by measuring ATP concentration in cell lysate.
(§5) Cell lines: Telomerized human diploid fibroblast (tHDF) cells (HS68) were cultured in Dulbecco's Modified Eagle Medium (DMEM) +10% fetal bovine serum (FBS) with any additional compounds. The same conditions were used for A2058 and WM2664, human melanoma cell lines with known RB-pathway mutations: A2058 is RB-null, whereas WM2664 lacks INK4a/ARF. Thus, A2058 cells are CDK4/6-independent, while WM2664 cells are CDK4/6-dependent. Cells were cultured in DMEM+10% FBS.
(§6) Cell proliferation assays: Cell proliferation assays were performed by seeding 1×10^3 cells per well in a 96-well tissue culture plate in 100 μL of growth medium. Cells were treated as indicated with compound from Table 1 and doxorubicin, etoposide or carboplatin. Following treatment, cells were allowed to recover for 7 days in normal growth medium. At the end of the recovery period, cell number was quantified using the VVST-1 cell proliferation assay (TaKaRa Bio USA, Madison, Wis., United States of America) or the CellTiter-Glo® assay (CTG; Promega, Madison, Wis., United States of America). Data is presented as absorbance at 450 nm for the WST assays or Relative Light Units (RLU) for the CTG assays.

[2] = test system: human melanoma cells lacking INK4a/ARF (WM2664); assay: as above; conditions: for protection from chemotherapy-induced cytotoxicity (cell proliferation assays): WM2664 (CDK4/6-dependent), pretreatment prior to carboplatin, etoposide or doxorubicin; for chemoprotective effects against doxorubicin (cell viability, CellTiter-Glo) / protection from doxorubicin-induced cytotoxicity (cell viability, WST-1 assay): WM2664; for chemoprotective effects against doxorubicin (cell viability, CellTiter-Glo): 16 hours pretreatment, DOX 122 nM 8 hours, viability after 7 days; for protection from doxorubicin-induced cytotoxicity (cell viability, WST-1 assay): absorbance at 450 nm, 7 days recovery
Method: as §4, §5, §6

[3] = test system: human RB-null melanoma cells (A2058); assay: as above; conditions: for protection from chemotherapy-induced cytotoxicity (cell proliferation assays): A2058 (CDK4/6-independent), pretreatment prior to carboplatin, etoposide or doxorubicin; for chemoprotective effects against doxorubicin (cell viability, CellTiter-Glo): A2058, 16 hours pretreatment, DOX 370 nM 8 hours, viability after 7 days
Method: as §4, §5, §6

[4] = test system: human RB-null melanoma cells (A2058); assay: Cell cycle analysis (BrdU and propidium iodide, flow cytometry); type: cell-based; conditions: A2058 (RB-null, CDK4/6-independent), 24 hours treatment
Method: (§1) Cells were cultured in DMEM+10% FBS.
(§2) Cell cycle analysis: Cell cycle analysis was performed using BrdU and propidium iodide (both from BD Biosciences Pharmigen, San Jose, Calif., United States of America) following the manufacturer's protocol. Cells were treated for 24 hours with a test compound at a desired dose prior to 15 minutes BrdU pulse, cell harvesting, fixation, staining, and analysis by flow cytometry.
(§3) Histograms of dose-response curves of PD332991 and 2BrIC in HS68, WM2664 and A2058 cells were analyzed using Mod-Fit™ software from Verity Software House (Topsham, Me., United States of America).

[5] = test system: human melanoma cells lacking INK4a/ARF (WM2664); assay: as above; type: cell-based; conditions: WM2664 (CDK4/6-dependent), 24 hours treatment
Method: as §1, §2, §3

[6] = test system: telomerized human diploid fibroblast (tHDF) cells (HS68); assay: as above; type: cell-based; conditions: HS68 (CDK4/6-dependent), 24 hours treatment
Method: as §1, §2, §3

## COc1ccc(F)c(F)c1C(=O)c1cnc(NC2CCN(S(C)(=O)=O)CC2)nc1N [Compound 7]
[1]
  protection from chemotherapy-induced cytotoxicity (cell proliferation assays): failed to protect
  chemoprotective effects against doxorubicin (cell viability, CellTiter-Glo): absence of chemoprotective effects
[2]
  protection from chemotherapy-induced cytotoxicity (cell proliferation assays): failed to protect
  chemoprotective effects against doxorubicin (cell viability, CellTiter-Glo): absence of chemoprotective effects
[3]
  protection from chemotherapy-induced cytotoxicity (cell proliferation assays): failed to protect
  chemoprotective effects against doxorubicin (cell viability, CellTiter-Glo): absence of chemoprotective effects
[4]
  cell cycle effect: did not induce a clean G1 arrest
[5]
  cell cycle effect: did not induce a clean G1 arrest; also recorded: does not induce G1 arrest
[6]
  cell cycle effect: did not induce a clean G1 arrest; also recorded: does not induce G1 arrest

## CN1CCN(c2ccc(Nc3ncc4cnn(C5CCCCC5)c4n3)cc2)CC1 [Compound 8]
[1]
  protection from chemotherapy-induced cytotoxicity (cell proliferation assays): failed to protect
  protection from doxorubicin-induced cytotoxicity (cell viability, WST-1 assay): inability
[2]
  protection from chemotherapy-induced cytotoxicity (cell proliferation assays): failed to protect
  protection from doxorubicin-induced cytotoxicity (cell viability, WST-1 assay): inability
[4]
  cell cycle effect: did not induce a clean G1 arrest
[5]
  cell cycle effect: did not induce a clean G1 arrest
[6]
  cell cycle effect: did not induce a clean G1 arrest

## CN1CCN(Cc2ccc(Nc3ncc4cnn(C5CCCCC5)c4n3)cc2)CC1 [Compound 9]
[1]
  protection from chemotherapy-induced cytotoxicity (cell proliferation assays): failed to protect
  protection from doxorubicin-induced cytotoxicity (cell viability, WST-1 assay): inability
[2]
  protection from chemotherapy-induced cytotoxicity (cell proliferation assays): failed to protect
  protection from doxorubicin-induced cytotoxicity (cell viability, WST-1 assay): inability
[4]
  cell cycle effect: did not induce a clean G1 arrest
[5]
  cell cycle effect: did not induce a clean G1 arrest
[6]
  cell cycle effect: did not induce a clean G1 arrest

## CN1CCN(C(=O)c2ccc(Nc3ncc4cnn(C5CCCCC5)c4n3)cc2)CC1 [Compound 11]
[1]
  protection from chemotherapy-induced cytotoxicity (cell proliferation assays): failed to protect
  protection from doxorubicin-induced cytotoxicity (cell viability, WST-1 assay): inability
[2]
  protection from chemotherapy-induced cytotoxicity (cell proliferation assays): failed to protect
  protection from doxorubicin-induced cytotoxicity (cell viability, WST-1 assay): inability
[4]
  cell cycle effect: did not induce a clean G1 arrest
[5]
  cell cycle effect: did not induce a clean G1 arrest
[6]
  cell cycle effect: did not induce a clean G1 arrest

## O=c1c(-c2ccc(O)cc2)coc2cc(O)cc(O)c12 [Genistein]
[1]
  protection from chemotherapy-induced cytotoxicity (cell proliferation assays): failed to protect
  chemoprotective effects against doxorubicin (cell viability, CellTiter-Glo): absence of chemoprotective effects
[2]
  protection from chemotherapy-induced cytotoxicity (cell proliferation assays): failed to protect
  chemoprotective effects against doxorubicin (cell viability, CellTiter-Glo): absence of chemoprotective effects
[3]
  protection from chemotherapy-induced cytotoxicity (cell proliferation assays): failed to protect
  chemoprotective effects against doxorubicin (cell viability, CellTiter-Glo): absence of chemoprotective effects
[4]
  cell cycle effect: did not induce a clean G1 arrest
[5]
  cell cycle effect: did not induce a clean G1 arrest
[6]
  cell cycle effect: did not induce a clean G1 arrest

## CN1CC[C@H](c2c(O)cc(O)c3c(=O)cc(-c4ccccc4Cl)oc23)[C@H](O)C1 [flavopiridol]
[1]
  protection from chemotherapy-induced cytotoxicity (cell proliferation assays): failed to protect
  chemoprotective effects against doxorubicin (cell viability, CellTiter-Glo): absence of chemoprotective effects
[2]
  protection from chemotherapy-induced cytotoxicity (cell proliferation assays): failed to protect
  chemoprotective effects against doxorubicin (cell viability, CellTiter-Glo): absence of chemoprotective effects
[3]
  protection from chemotherapy-induced cytotoxicity (cell proliferation assays): failed to protect
  chemoprotective effects against doxorubicin (cell viability, CellTiter-Glo): absence of chemoprotective effects
[4]
  cell cycle effect: did not induce a clean G1 arrest
[5]
  cell cycle effect: did not induce a clean G1 arrest; also recorded: does not induce G1 arrest
[6]
  cell cycle effect: did not induce a clean G1 arrest; also recorded: does not induce G1 arrest
